Results published in patent publication US6417181B1, “Naphthyl-substituted and anilide-substituted sulfonamides” (Bayer Aktiengesellschaft, priority 1998, dated 2002).

System: not given
Test: not given
Conditions: not given
In the case of `CNc1ccc(S(=O)(=O)Nc2ccc(NC(=O)C(C)(C)C)cc2)c2ccccc12`, the melting point is reported as 248 °C (dec.). With `CC(=O)Nc1ccc(S(=O)(=O)Nc2ccc(NC(=O)C(C)(C)C)cc2)c2ccccc12` the melting point was > 240 °C. Work on `CC(C)(C)C(=O)Nc1ccc(NS(=O)(=O)c2ccc(N)c3ccccc23)cc1` yielded a melting point of 216 °C.

System: human cytomegalovirus (HCMV)
Test: anti-HCMV screening test: spread of the cytopathogenic effect in HELF cell cultures, 96-well microtitre plates
Format: cell-based
Conditions: Human betaherpesvirus 5; HCMV-infected HELF cells, CPE, Neutral Red staining
Protocol: The anti-HCMV action was determined in a screening test system in 96-well microtitre plates with the aid of human embryonic lung fibroblast (HELF) cell cultures. The effect of the substances on the spread of the cytopathogenic effect was determined in comparison with the reference substance ganciclovir (Cymevene® sodium), a clinically approved anti-HCMV chemotherapeutic.
The substances dissolved (50 mM) in DMSO (dimethyl sulphoxide) are investigated on microtitre plates (96-well) in duplicate determinations (4 substances/plate). Toxic and cytostatic substance effects are additionally detected at the same time. After the appropriate substance dilutions (1:2) on the microtitre plate, a suspension of 50-100 HCMV-infected HELF cells and […] non-infected HELF cells in Eagle's MEM with 10% foetal calf serum is added to each well, and the plates are incubated at 37° C. in a CO2 incubator for several days. After this time, the cell lawn in the sub-stance-free virus controls, starting from 50-100 infectious centres, is completely destroyed by the cytopathogenic effect of the HCMV (100% CPE). After staining with Neutral Red and fixing with formalin/methanol, the plates are assessed with the aid of a projection microscope (plaque-viewer).
`CN(C)c1cccc2c(S(=O)(=O)Nc3ccc(NC(=O)C(C)(C)CF)cc3)cccc12` [Example 13] showed an EC50 of 64 nM. `CN(C)c1cccc2c(S(=O)(=O)Nc3ccc(NC(=O)C(C)(C)CCl)cc3)cccc12` [Example 16] showed an EC50 of 28 nM. Work on `CN(C)c1cccc2c(S(=O)(=O)Nc3ccc(NC(=O)C(C)(CO)CO)cc3)cccc12` [Example 24] yielded an EC50 of 880 nM. For `CN(C)c1cccc2c(S(=O)(=O)Nc3ccc(NC(=O)C(C)(C)CN)cc3)cccc12` [Example 25], the EC50 was 640 nM.
